Here are results for 102 compounds from ChEMBL document CHEMBL3507680, “University of Dundee, Gates Library screen for HepG2 cell viability”.

The nature of the data set: Human HepG2 cell viability assay in 384 well format. More on the design: dose 125 nL, time 70.5 hour; concentration not given beside the values. Particulars: HepG2 cells, read-out: Inhibition. The data set is classed as toxicity, cell-based.
In the case of `Cc1nn(C)c(N(C)C)c1CNCc1ccc(C(=O)N(C)C)cc1`, the cytotoxicity at 70.5 h turned out to be 4.69%. Turning to `O=C(Cc1cn2ccccc2n1)N1CCCC(n2cccn2)C1` (configuration not stated), the cytotoxicity at 70.5 h was determined as 23.8%. For the compound `Cc1cc(C)n(C2CCCN(C(=O)c3cc(C(N)=O)cs3)C2)n1` (configuration not stated), the cytotoxicity at 70.5 h was found to be 0.983%. As for `Cc1cc(C(=O)N2CCCC(n3ccnc3)C2)c(C)n1C1CC1` (configuration not stated), the cytotoxicity at 70.5 h worked out at 1.06%.

As for `Cc1nn(C)c(C)c1C1CCCN1Cc1nc(N)c2ccccc2n1` (configuration not stated), the cytotoxicity at 70.5 h was -2.07%. For the compound `Cc1nn(C)c(C)c1C1CCCN1Cc1nc2ccccc2c(=O)[nH]1` (configuration not stated), the cytotoxicity at 70.5 h was -0.414%. Take `Cc1ccc(S(C)(=O)=O)cc1C(=O)N1CCCC(n2cncn2)C1` (configuration not stated): the cytotoxicity at 70.5 h is -3.44%. Consider `COc1ccc(C)cc1C(=O)N1CCCC(n2cncn2)C1` (configuration not stated), for which the cytotoxicity at 70.5 h is -3.25%. In the case of `CC(C)c1n[nH]c(C2CN(CCc3cccs3)CCO2)n1` (configuration not stated), the cytotoxicity at 70.5 h is -6.41%. For `CC(=O)N(Cc1ncc(C)o1)C1CCN(Cc2ccccc2C#N)C1` (configuration not stated) the value was -3.02%; for `Cc1nn(C)c(C)c1C1CCCN1Cc1nc2ccccc2n1C` (configuration not stated), 0.883%; for `Cc1nccc(CNc2cc(N3CCCC3CO)ncn2)n1` (configuration not stated), 2.68%. The same measure for `Cc1cnn(CC2CCCN2Cc2nccn2CC(F)(F)F)c1` (configuration not stated): 0.0433%; for `CCN1CCC(NC(=O)CN2CCc3c(ncn3C3CC3)C2)CC1`: -9.11%. Turning to `Cc1ccc(N2CCCC(NCc3c(C)noc3C)C2)nn1` (configuration not stated), the cytotoxicity at 70.5 h was -8.52%. Take `Cc1ccc(S(=O)(=O)NCc2cccc(C(=O)N3CCCC3)c2)cc1F`: the cytotoxicity at 70.5 h was -7.96%. As to `Cn1ccc(CN2CCC(CN3CCOCC3)CC2)cc1=O`, the cytotoxicity at 70.5 h was -7.39%. On to `O=C(c1cn(-c2ccc(F)cc2)nn1)N1CCCC(n2cccn2)C1` (configuration not stated), for which the cytotoxicity at 70.5 h is -1.26%.

For `CCN(CC)C(=O)NCCc1ccn(-c2ccccc2)n1`, the cytotoxicity at 70.5 h is 11%. For the compound `CCc1nc(CN2CCN(C(C)c3nc(C4CC4)no3)CC2)no1` (configuration not stated), the cytotoxicity at 70.5 h is -10.3%.

Turning to `CC(C)(C)C(=O)NCCC(=O)NCCc1ccn(-c2ccccc2)n1`, the cytotoxicity at 70.5 h was -4.33%. Regarding `O=C(CN1CCc2c(ncn2C2CC2)C1)NC1CCN(C2CC2)CC1`, the cytotoxicity at 70.5 h was 16.5%. For the compound `Cc1cc(C)n(C2CCCN(C(=O)CCOc3cccc(F)c3)C2)n1` (configuration not stated), the cytotoxicity at 70.5 h was -2.12%.

Consider `CCn1ccnc1CN1CCCN(C(=O)c2cnc(C)cn2)CC1`, for which the cytotoxicity at 70.5 h is -5.42%. As for `CC(C)c1noc(C(C)N2CCN(Cc3noc(C(C)(C)C)n3)CC2)n1` (configuration not stated), the cytotoxicity at 70.5 h is -3.35%. Take `Cn1ccc(CN2CCN(CC3CC3)CC2)cc1=O`: the cytotoxicity at 70.5 h came out at 21.6%. In the case of `Cc1cnn(CC2CCCN2Cc2nnc(C3CC3)n2C)c1` (configuration not stated), the cytotoxicity at 70.5 h was -8.67%. For `CC(C)c1nc(C2CCCN(C(=O)c3nccn4ccnc34)C2)no1` (configuration not stated) the value was -7.38%; for `CCn1ccnc1CN1CCCN(C(=O)Cc2ccccc2C)CC1`, -1.08%. Regarding `CC(c1nc(C2CC2)no1)N1CCN(Cc2noc(C3CC3)n2)CC1` (configuration not stated), the cytotoxicity at 70.5 h was -2.08%. As for `O=C(CCOCC(F)(F)F)N1CCCC(n2ccnc2)C1` (configuration not stated), the cytotoxicity at 70.5 h was -6.65%. `CCc1n[nH]c(C2CN(C(=O)c3cscn3)CCO2)n1` (configuration not stated): the cytotoxicity at 70.5 h amounted to 43%. Regarding `CCc1n[nH]c(C2CN(C(=O)c3ccc4c(c3)COC4)CCO2)n1` (configuration not stated), the cytotoxicity at 70.5 h came to 18%. With `CN(CCc1ccncc1)CC1CCCN1c1cccnn1` (configuration not stated), the cytotoxicity at 70.5 h was 25.1%.

For the compound `CN(Cc1ccccn1)CC1CCCN1c1cccnn1` (configuration not stated), the cytotoxicity at 70.5 h was -5.71%.

As to `COc1cccc(COCC(=O)N2CCCC2Cn2cccn2)c1` (configuration not stated), the cytotoxicity at 70.5 h is -11.8%.

As to `Cc1cnn(CC2CCCN2C(=O)c2cn(C)c3ccccc23)c1` (configuration not stated), the cytotoxicity at 70.5 h is -9.04%. `CN(Cc1cccc(C(N)=O)c1)CC1CCCN1c1cccnn1` (configuration not stated): the cytotoxicity at 70.5 h is -10.2%.

`CC(Cn1cccn1)NC(=O)NCc1cccnc1` (configuration not stated): the cytotoxicity at 70.5 h was -9.07%. For the compound `Cc1ccc(C(=O)NC2CCN(C(=O)Nc3ccccn3)CC2)s1`, the cytotoxicity at 70.5 h amounted to 11.7%. Turning to `Cc1nc(CN2CCOC(Cn3cccn3)C2)nc2ccccc12` (configuration not stated), the cytotoxicity at 70.5 h was -12.1%. As for `COc1ccc(C(=O)N(C)Cc2nnc3ccccn23)cc1`, the cytotoxicity at 70.5 h stood at 10.4%. In the case of `COc1cc(OC)cc(C(=O)N(C)Cc2nnc3ccccn23)c1`, the cytotoxicity at 70.5 h was -1.71%. For the compound `Cc1cnn(CC2CN(Cc3nc4ccccc4n3C)CCO2)c1` (configuration not stated), the cytotoxicity at 70.5 h was 9.31%.

For `CCN1CCN(C2CCN(Cc3nnc(C(C)C)o3)CC2)C1=O`, the cytotoxicity at 70.5 h was -7.93%.

`O=C(c1nccc2ccccc12)N1CCCCC1Cn1cccn1` (configuration not stated): the cytotoxicity at 70.5 h is -5.86%. `COc1ccc(CC(=O)N2CCCCC2Cn2cccn2)cc1` (configuration not stated): the cytotoxicity at 70.5 h is -3.73%.

As for `CNC(=O)c1ccc(C(=O)N2CCC(Nc3cccnn3)CC2)cn1`, the cytotoxicity at 70.5 h was -4.73%. Turning to `CC(=O)Nc1nc(CN2CCOC(Cn3nc(C)cc3C)C2)cs1` (configuration not stated), the cytotoxicity at 70.5 h stood at 10.6%. Turning to `Cc1cnn(CCNCC(=O)NCC2(c3ccccc3)CC2)c1`, the cytotoxicity at 70.5 h amounted to 31.1%. `CC(C)NC(=O)Nc1ccc(CNCc2cccc(C#N)c2)cc1`: the cytotoxicity at 70.5 h was -3.33%. For `CCc1ccsc1C(=O)N1CCN(C(=O)CC(F)(F)F)CC1` the value was 3.81%; for `CCOc1ncccc1NC(=O)NC1CCN(S(C)(=O)=O)CC1`, 20.6%; for `CN(C(=O)CN1CCOC(Cn2cccn2)C1)c1nccs1` (configuration not stated), 9.89%.

For the compound `COC(=O)c1cccn1C1CCN(Cc2ccccc2)CC1`, the cytotoxicity at 70.5 h is 15.7%. On to `Cc1cnn(CC2CCCN2CC(=O)Nc2cc(C(C)(C)C)no2)c1` (configuration not stated), for which the cytotoxicity at 70.5 h was 5.18%. As to `CCc1ccsc1C(=O)N1CCN(CC(O)CC)CC1` (configuration not stated), the cytotoxicity at 70.5 h was 6.44%. With `CCOc1ncccc1C(=O)N1CCCC1c1c(C)nn(C)c1OC` (configuration not stated), the cytotoxicity at 70.5 h was determined as 1.14%. On to `Cc1cnn(CC2CCCN2C(=O)c2cc(Cl)ccc2F)c1` (configuration not stated), for which the cytotoxicity at 70.5 h is 28.1%.

Take `c1ncn(CC2CN(CC3CCCC3)CCO2)n1` (configuration not stated): the cytotoxicity at 70.5 h was 0.357%. In the case of `O=C(NCc1nnc2n1CCCCC2)N1CCc2sccc2C1`, the cytotoxicity at 70.5 h was -5.42%. The same measure for `O=C(NCc1csc(Br)c1)c1ccc(=O)[nH]n1`: -15.6%; for `Cn1ccc(CN2CCC(CCc3ccc(O)cc3)CC2)cc1=O`: -9.59%; for `Cc1nc(CN2CCCC2c2ccsc2)nc2ccccc12` (configuration not stated): 4.71%. For the compound `CCN1CCC(NC(=O)CN2CCc3c(ncn3C)C2)CC1`, the cytotoxicity at 70.5 h was 2.11%. `Clc1ccc(-n2cc(CNC3CCc4ncnn4C3)cn2)cc1` (configuration not stated): the cytotoxicity at 70.5 h was -12.4%. For the compound `Cc1cnn(CC2CCCN2c2nn3cc(C)nc3s2)c1` (configuration not stated), the cytotoxicity at 70.5 h was -4.6%. Take `CCc1nccn1C1CCCN(C(=O)Cc2n[nH]c3ccccc23)C1` (configuration not stated): the cytotoxicity at 70.5 h is -1.24%. On to `Cc1nc2ccccc2nc1CN1CCCC1c1c(C)nn(C)c1C` (configuration not stated), for which the cytotoxicity at 70.5 h was -4.26%.

With `Cc1ccsc1CNc1cc(N2CCCC2CO)ncn1` (configuration not stated), the cytotoxicity at 70.5 h was -4.35%. Turning to `Cc1[nH]ncc1C(=O)N1CCCC(n2cncn2)C1` (configuration not stated), the cytotoxicity at 70.5 h is -1.06%. For the compound `Cc1nc(C)n(C2CCCN(C(=O)c3cc(C(N)=O)cs3)C2)n1` (configuration not stated), the cytotoxicity at 70.5 h was -17.1%.

With `CCc1n[nH]c(C2CN(CCc3cccs3)CCO2)n1` (configuration not stated), the cytotoxicity at 70.5 h was 22.1%. As for `O=C(NCc1nnc2ccccn12)N1CCc2sccc2C1`, the cytotoxicity at 70.5 h is -21.7%.

As for `c1cnn(CC2CN(CC3CCCC3)CCO2)c1` (configuration not stated), the cytotoxicity at 70.5 h was -9.69%. As for `COc1ccc(C)cc1CN1CCCC1Cn1nc(C)nc1C` (configuration not stated), the cytotoxicity at 70.5 h was -9.81%. Turning to `CCc1n[nH]c(C2CN(CCc3ccncc3)CCO2)n1` (configuration not stated), the cytotoxicity at 70.5 h was -7.11%. For the compound `Cc1nc(C2CCCN(C(=O)C(C)(C)n3cc(Cl)cn3)C2)no1` (configuration not stated), the cytotoxicity at 70.5 h is -13.5%. For `COc1cccc(CCC(=O)N2CCCC(n3cc(C)cn3)C2)c1` (configuration not stated), the cytotoxicity at 70.5 h is -15.8%.

With `Cc1cnn(CC2CCCN2C(=O)c2ccc3[nH]nnc3c2)c1` (configuration not stated), the cytotoxicity at 70.5 h amounted to 17.5%.

As for `CC(C)c1nc(CN2CCN(C(C)c3nc(C4CC4)no3)CC2)no1` (configuration not stated), the cytotoxicity at 70.5 h was -4.05%. As to `O=C(NCCCn1cncn1)NCC(c1ccco1)N1CCCCC1` (configuration not stated), the cytotoxicity at 70.5 h was -18.7%. For `CC(Cn1cccn1)NC(=O)NCc1ccc(S(N)(=O)=O)cc1` (configuration not stated) the value was -7.93%.

`Cc1cnn(CC2CN(Cc3nc(N)c4ccccc4n3)CCO2)c1` (configuration not stated): the cytotoxicity at 70.5 h is 22.8%. For `Cc1cnn(CC2CCCCN2C(=O)c2ccc3nnc(C)n3c2)c1` (configuration not stated) the value was -10.9%. The same measure for `O=C(CCc1cccs1)N1CCC(N2CCNC2=O)CC1`: -0.95%; for `Cc1ccc(C(=O)NC2CCN(C(=O)Nc3ccccn3)CC2)o1`: 16.1%; for `CCN(Cc1nc2c(cnn2C)c(=O)[nH]1)c1cccc(Cl)c1`: -15.8%. In the case of `Cc1cc(F)ccc1S(=O)(=O)NCc1cccc(C(=O)N2CCCC2)c1`, the cytotoxicity at 70.5 h was -14.8%. In the case of `COc1ccc(C(=O)N(C)Cc2nnc3ccccn23)c(OC)c1`, the cytotoxicity at 70.5 h was -15.7%. Consider `O=C(c1ccc(-n2cccn2)nc1)N1CCC(Nc2cccnn2)CC1`, for which the cytotoxicity at 70.5 h was -18.2%. On to `O=C(NCc1cccnc1)C1CC(=O)N(CC2CC2)C1` (configuration not stated), for which the cytotoxicity at 70.5 h is -6.68%. Regarding `CCc1ccc(OCC(O)CN2CCC(O)CC2)cc1` (configuration not stated), the cytotoxicity at 70.5 h stood at 24.8%. For `COc1cccc(CNC(=O)CN2CCCCC2Cn2cccn2)c1` (configuration not stated), the cytotoxicity at 70.5 h was -7.75%. Consider `CCn1cc(CN2CCCN(C(=O)Cc3ccc(C)nc3)CC2)cn1`, for which the cytotoxicity at 70.5 h was -9.56%.

Consider `Cc1cnn(CC2CN(Cc3nc4ccccc4nc3C)CCO2)c1` (configuration not stated), for which the cytotoxicity at 70.5 h is -0.573%. Turning to `Cc1ccc(C(=O)N2CCN(C(=O)Nc3ccccn3)CC2)o1`, the cytotoxicity at 70.5 h worked out at 29.1%. As to `CCc1n[nH]c(C2CN(C(=O)c3ccsc3)CCO2)n1` (configuration not stated), the cytotoxicity at 70.5 h was -9.96%. Take `O=C(NCCCn1cncn1)NCC(c1ccccc1)N1CCCC1` (configuration not stated): the cytotoxicity at 70.5 h was found to be 0.00173%. As to `O=C(NCc1cccnc1-n1cccn1)C1CC(=O)N(CC2CC2)C1` (configuration not stated), the cytotoxicity at 70.5 h is -13.2%. As for `Cc1nnc(C2Cc3ccccc3CN2Cc2ncc(C(C)(C)C)o2)o1` (configuration not stated), the cytotoxicity at 70.5 h worked out at 34.5%.

On to `COc1c(CNCc2ccc(C(=O)NC3CC3)cc2)c(C)nn1C`, for which the cytotoxicity at 70.5 h was -3.83%.
